Measurements reported in paper PMC6858373 (Scientific Reports, 2019).
Where a name gives a salt, the structure may show the parent alone. Read-outs that look alike come from different tables or passages of the source.

How the values were obtained:
[1] = system: Clone V cells
[2] = target: full-length P. pyralis luciferase (Photinus pyralis, UniProt P08659, K549A/L550V/N119G/N50D/S548I); format: cell-based
[3] = target: T1, FGF14:Nav1.6 C-tail complex (Homo sapiens, UniProt Q92915+Q9UQD0); assay: Split-luciferase complementation assay (LCA) in Clone V double stable HEK293 cells; format: cell-based; details: for Z-score (LCA primary screening): 30 µM, average of primary screening (n = 2), vs on-plate 0.3% DMSO; for Z-score (LCA primary screening) / EMax (% Luminescence) / IMin (% Luminescence): 384-well; for EMax (% Luminescence): agonists; for EMax (% Luminescence) / IMin (% Luminescence): normalized to DMSO; for EC50: read-out: EC50; for IMin (% Luminescence): antagonists
T1 construct: polymerase chain reaction (PCR) amplification of the FGF14 open reading frame (nt 1–855); C-terminal fragment of Nav1.6 (amino acids 1763–1976) fused with CD4ΔC-tail (amino acids 1–395); expressed in transfected cells
T1 sequence (Q92915 1-252 isoform Q92915-2): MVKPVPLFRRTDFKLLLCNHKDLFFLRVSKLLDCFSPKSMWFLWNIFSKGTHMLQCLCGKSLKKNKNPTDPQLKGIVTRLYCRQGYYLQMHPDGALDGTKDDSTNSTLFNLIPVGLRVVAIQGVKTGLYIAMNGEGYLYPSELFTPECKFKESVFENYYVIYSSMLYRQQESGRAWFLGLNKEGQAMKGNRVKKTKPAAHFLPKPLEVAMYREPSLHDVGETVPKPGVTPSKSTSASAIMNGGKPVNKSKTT
T1 sequence (Q9UQD0 1763-1976 limits assumed): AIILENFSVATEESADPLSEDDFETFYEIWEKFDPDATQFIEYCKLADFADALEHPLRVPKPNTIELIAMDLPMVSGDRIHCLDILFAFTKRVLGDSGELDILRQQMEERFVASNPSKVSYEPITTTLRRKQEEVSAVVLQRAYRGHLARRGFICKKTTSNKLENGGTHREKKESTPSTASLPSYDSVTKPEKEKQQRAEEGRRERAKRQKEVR

[4] = CC_NCI screening, full-length luciferase counter-screen luminescence, normalized to on-plate 0.3% DMSO controls
[5] = CC_NCI screening, full-length luciferase counter-screen, normalized to on-plate 0.3% DMSO controls
[6] = CC_NCI screening, LCA luminescence, biological replicate Set 1, normalized to on-plate 0.3% DMSO controls (n=16 per plate)
[7] = CC_NCI screening, LCA luminescence, biological replicate Set 2, normalized to on-plate 0.3% DMSO controls (n=16 per plate)
[8] = CC_NCI screening, LCA, biological replicate Set 1, normalized to on-plate 0.3% DMSO controls
[9] = CC_NCI screening, LCA, biological replicate Set 2, normalized to on-plate 0.3% DMSO controls
[10] = CC_NCI screening, average of Set 1 and Set 2, normalized to 0.3% DMSO controls
[11] = CC_NCI screening, normalized to on-plate 0.3% DMSO controls
[12] = CC_NCI screening, biological replicate Set 1, normalized to on-plate 0.3% DMSO controls
[13] = CC_NCI screening, biological replicate Set 1, normalized to on-plate 0.3% DMSO controls (n=16 per plate)
[14] = CC_NCI screening, biological replicate Set 2, normalized to on-plate 0.3% DMSO controls
[15] = CC_NCI screening, biological replicate Set 2, normalized to on-plate 0.3% DMSO controls (n=16 per plate)
[16] = average of Set 1 and Set 2, normalized to 0.3% DMSO controls
[17] = estimated, 8-point dose response 0.25-30 µM, n = 4 per concentration, library compounds
[18] = estimated, 8-point dose response 0.25-30 µM, n = 4 per concentration, library compounds, read-out: IC50

full-length P. pyralis luciferase, sequence (P08659 whole entry N50D/N119G/S548I/K549A/L550V, looked up): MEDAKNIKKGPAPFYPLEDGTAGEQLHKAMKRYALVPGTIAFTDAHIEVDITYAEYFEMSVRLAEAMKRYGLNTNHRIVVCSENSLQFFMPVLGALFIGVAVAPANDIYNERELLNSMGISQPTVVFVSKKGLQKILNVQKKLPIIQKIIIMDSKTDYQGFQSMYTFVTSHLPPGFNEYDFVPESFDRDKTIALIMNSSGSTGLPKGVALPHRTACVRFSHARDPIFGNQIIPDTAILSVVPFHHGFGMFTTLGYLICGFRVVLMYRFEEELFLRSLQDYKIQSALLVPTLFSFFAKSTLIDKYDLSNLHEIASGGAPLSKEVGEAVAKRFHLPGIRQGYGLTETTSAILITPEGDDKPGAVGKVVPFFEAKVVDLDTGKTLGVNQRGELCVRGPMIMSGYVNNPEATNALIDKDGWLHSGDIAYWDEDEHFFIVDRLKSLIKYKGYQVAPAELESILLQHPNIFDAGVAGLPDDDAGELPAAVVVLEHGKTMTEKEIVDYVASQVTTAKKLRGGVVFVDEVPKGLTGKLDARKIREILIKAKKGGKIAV

COc1cccc2c1C(=O)c1c(O)c3c(c(O)c1C2=O)C[C@@](O)(C(C)=O)C[C@@H]3O[C@H]1C[C@H](N)[C@H](O)[C@H](C)O1 [Daunorubicin hydrochloride]
Toxicity Assay % Fluor ([1]; human, 16 h, 30 µM): 81.24% | Toxicity Assay Z-score ([1]; human, 16 h, 30 µM): -2.62 | Luciferase Assay % Lum [2, 4]: 65.12% | Luciferase Assay Z-score [2, 5]: -4.47 | Split Luciferase Assay % Lum Set 1 [3, 6]: 48.16% | Split Luciferase Assay %Lum Set 2 [3, 7]: 61.38% | Split Luciferase Assay Z-score Set 1 [3, 8]: -4.19 | Split Luciferase Assay Z-score Set 2 [3, 9]: -3.14 | Split Luciferase Assay %Lum Avg [3, 10]: 54.77%

Plicamycin
Luciferase Assay % Lum (full-length luciferase counter-screen) [2, 11]: 92.59% | Luciferase Assay Z-score (full-length luciferase counter-screen) [2, 11]: -0.95 | Split Luciferase Assay Z-score Set 1 [3, 12]: -1.20 | Split Luciferase Assay % Lum Set 1 [3, 13]: 85.12% | Split Luciferase Assay Z-score Set 2 [3, 14]: -1.11 | Split Luciferase Assay %Lum Set 2 [3, 15]: 86.35% | Split Luciferase Assay %Lum Avg [3, 16]: 85.73%

CO[C@H]1/C=C\C=C(/C)C(=O)NC2=CC(=O)C(NCCN(C)C)=C(C[C@@H](C)C[C@H](OC)[C@H](O)[C@@H](C)/C=C(\C)[C@@H]1OC(N)=O)C2=O [Compound 17-DMAG]
Toxicity Assay % Fluor [1]: 54.29% | Toxicity Assay Z-score [1]: -6.39 | Luciferase Assay % Lum [2, 4]: 84.54% | Luciferase Assay Z-score [2, 5]: -1.98 | Split Luciferase Assay % Lum Set 1 [3, 6]: 40.55% | Split Luciferase Assay %Lum Set 2 [3, 7]: 65.54% | Split Luciferase Assay Z-score Set 1 [3, 8]: -4.80 | Split Luciferase Assay Z-score Set 2 [3, 9]: -2.80 | Split Luciferase Assay %Lum Avg [3, 10]: 53.04%

CC[C@H](CO)Nc1nc(NCc2ccccc2)c2ncn(C(C)C)c2n1 [Roscovitine]
Toxicity Assay % Fluor ([1]; human): 99.28% | Toxicity Assay Z-score ([1]; human): -0.10 | Luciferase Assay % Lum [2]: 97.39% | Luciferase Assay Z-score [2]: -0.33 | Split Luciferase Assay % Lum Set 1 [3]: 32.94% | Split Luciferase Assay %Lum Avg [3]: 39.88% | Split Luciferase Assay %Lum Set 2 [3]: 46.81% | Split Luciferase Assay Z-score Set 1 [3]: -5.42 | Split Luciferase Assay Z-score Set 2 [3]: -4.33

Cc1ccc(NC(=O)c2ccc(CN3CCN(C)CC3)cc2)cc1Nc1nccc(-c2cccnc2)n1 [Imatinib]
Luciferase Assay % Lum [2]: 90.17% | Luciferase Assay Z-score [2]: -1.26

CCN(CC)CCNC(=O)c1c(C)[nH]c(/C=C2\C(=O)Nc3ccc(F)cc32)c1C [Sunitinib]
Luciferase Assay % Lum [2, 4]: 95.10% | Luciferase Assay Z-score [2, 5]: -0.63 | Split Luciferase Assay % Lum Set 1 [3, 6]: 68.81% | Split Luciferase Assay %Lum Set 2 [3, 7]: 72.82% | Split Luciferase Assay Z-score Set 1 [3, 8]: -2.52 | Split Luciferase Assay Z-score Set 2 [3, 9]: -2.21 | Split Luciferase Assay %Lum Avg [3, 10]: 70.82%

CC[C@]1(O)C[C@H]2CN(CCc3c([nH]c4ccccc34)[C@@](C(=O)OC)(c3cc4c(cc3OC)N(C=O)[C@H]3[C@@](O)(C(=O)OC)[C@H](OC(C)=O)[C@]5(CC)C=CCN6CC[C@]43[C@@H]65)C2)C1 [Vincristine, reference compound]
Z-score (LCA primary screening) [3]: 7.99 | EMax (% Luminescence) ([3]; Clone V cells): 198.49 % Luminescence | EC50 [3, 17]: 0.27 µM

CCC1=C[C@@H]2CN(C1)Cc1c([nH]c3ccccc13)[C@@](C(=O)OC)(c1cc3c(cc1OC)N(C)[C@H]1[C@@](O)(C(=O)OC)[C@H](OC(C)=O)[C@]4(CC)C=CCN5CC[C@]31[C@@H]54)C2 [Vinorelbine, reference compound]
Z-score (LCA primary screening) [3]: 8.79 | EMax (% Luminescence) ([3]; Clone V cells): 208.53 % Luminescence | EC50 [3, 17]: 1.55 µM

CC[C@]1(O)C[C@@H]2CN(CCc3c([nH]c4ccccc34)[C@@](C(=O)OC)(c3cc4c(cc3OC)N(C)[C@H]3[C@@](O)(C(=O)OC)[C@H](OC(C)=O)[C@]5(CC)C=CCN6CC[C@]43[C@@H]65)C2)C1 [Vinblastine, reference compound]
Z-score (LCA primary screening) [3]: 7.42 | EMax (% Luminescence) ([3]; Clone V cells): 191.58 % Luminescence | EC50 [3, 17]: 20.6 µM

CNC(=O)c1cc(Oc2ccc(NC(=O)Nc3ccc(Cl)c(C(F)(F)F)c3)cc2)ccn1 [Sorafenib, reference compound]
Luciferase Assay % Lum [2, 4]: 88.55% | Luciferase Assay % Lum ([2]; CC_NCI screening, full-length luciferase counter-screen luminescence, normalized to on-plate 0.3% DMSO controls, listed as SORAFENIB): 91.34% | Luciferase Assay Z-score [2, 5]: -1.47 | Luciferase Assay Z-score ([2]; CC_NCI screening, full-length luciferase counter-screen, normalized to on-plate 0.3% DMSO controls, listed as SORAFENIB): -1.11 | Z-score (LCA primary screening) [3]: −7.62 | Split Luciferase Assay % Lum Set 1 [3, 6]: 5.76% | Split Luciferase Assay % Lum Set 1 ([3]; CC_NCI screening, LCA luminescence, biological replicate Set 1, normalized to on-plate 0.3% DMSO controls (n=16 per plate), listed as SORAFENIB): 4.67% | Split Luciferase Assay %Lum Set 2 [3, 7]: 15.60% | Split Luciferase Assay %Lum Set 2 ([3]; CC_NCI screening, LCA luminescence, biological replicate Set 2, normalized to on-plate 0.3% DMSO controls (n=16 per plate), listed as SORAFENIB): 7.28% | Split Luciferase Assay Z-score Set 1 [3, 8]: -7.62 | Split Luciferase Assay Z-score Set 1 ([3]; CC_NCI screening, LCA, biological replicate Set 1, normalized to on-plate 0.3% DMSO controls, listed as SORAFENIB): -7.70 | Split Luciferase Assay Z-score Set 2 [3, 9]: -6.87 | Split Luciferase Assay Z-score Set 2 ([3]; CC_NCI screening, LCA, biological replicate Set 2, normalized to on-plate 0.3% DMSO controls, listed as SORAFENIB): -7.54 | Split Luciferase Assay %Lum Avg [3, 10]: 10.68% | Split Luciferase Assay %Lum Avg ([3]; CC_NCI screening, average of Set 1 and Set 2, normalized to 0.3% DMSO controls, listed as SORAFENIB): 5.98% | IMin (% Luminescence) ([3]; Clone V cells): 5.98 % Luminescence | IC50 [3, 18]: 3.98 µM

CCn1c(-c2nonc2N)nc2cnc(Oc3cccc(NC(=O)c4ccc(OCCN5CCOCC5)cc4)c3)cc21 [GSK 269962 A, reference compound]
Z-score (LCA primary screening) [3]: −5.77 | IMin (% Luminescence) ([3]; Clone V cells): 28.81 % Luminescence | IC50 [3, 18]: 24.7 µM

CCc1c2c(nc3ccc(OC(=O)N4CCC(N5CCCCC5)CC4)cc13)-c1cc3c(c(=O)n1C2)COC(=O)[C@]3(O)CC.Cl [Irinotecan hydrochloride]
Luciferase Assay % Lum [2, 4]: 96.04% | Luciferase Assay Z-score [2, 5]: -0.51

CS(=O)(=O)N1CCN(Cc2cc3nc(-c4cccc5[nH]ncc45)nc(N4CCOCC4)c3s2)CC1 [GDC 0941]
Luciferase Assay % Lum (full-length luciferase counter-screen) [2, 11]: 84.36% | Luciferase Assay Z-score (full-length luciferase counter-screen) [2, 11]: -2.00

N.N.[Cl][Pt][Cl] [Cisplatin]
Luciferase Assay % Lum [2, 4]: 99.37% | Luciferase Assay Z-score [2, 5]: -0.08 | Split Luciferase Assay % Lum Set 1 [3, 6]: 89.47% | Split Luciferase Assay %Lum Set 2 [3, 7]: 98.83% | Split Luciferase Assay Z-score Set 1 [3, 8]: -0.85 | Split Luciferase Assay Z-score Set 2 [3, 9]: -0.10 | Split Luciferase Assay %Lum Avg [3, 10]: 94.15%

O=[N+]([O-])/C=C/c1ccc2c(c1)OCO2 [MNS, reference compound]
% maximal luminescence, full-length luciferase (normalized mean and SD) ([2]; MNS 30 µM, 96-well plates): 96.8% ± 2.8% | IC50 ([3]; 384-well plates, range 0.625 - 25 μM, n=16 per concentration (Supplementary Fig. S1A), read-out: Estimated IC50): 13.3 µM | % luminescence (normalized mean and SD) ([3]; MNS 30 µM, Clone V cells, 96-well plates): 10.8% ± 3.1% | IC50 ([3]; cell density 1 × 10^4 cells per 384-well, 8 concentrations 0.625-30 µM, read-out: IC50): 3.96 µM | IC50 ([3]; cell density 2 × 10^4 cells per 384-well, 8 concentrations 0.625-30 µM, read-out: IC50): 7.49 µM | IC50 ([3]; cell density 3 × 10^4 cells per 384-well, 8 concentrations 0.625-30 µM, read-out: IC50): 9.82 µM | IC50 ([3]; cell density 4 × 10^4 cells per 384-well, 8 concentrations 0.625-30 µM, read-out: IC50): 13.3 µM

O=C(NOC[C@H](O)CO)c1ccc(F)c(F)c1Nc1ccc(I)cc1F [PD 0325901]
Toxicity Assay % Fluor ([1]; human, 16 h, 30 µM): 83.92% | Toxicity Assay Z-score ([1]; human, 16 h, 30 µM): -2.25

O=c1cc(N2CCOCC2)nc2c3ccccc3ccn12 [COMPOUND 401]
Luciferase Assay % Lum (full-length luciferase counter-screen) [2, 11]: 93.50% | Luciferase Assay Z-score (full-length luciferase counter-screen) [2, 11]: -0.83 | Split Luciferase Assay Z-score Set 1 [3, 12]: -0.15 | Split Luciferase Assay % Lum Set 1 [3, 13]: 98.17% | Split Luciferase Assay Z-score Set 2 [3, 14]: -0.43 | Split Luciferase Assay %Lum Set 2 [3, 15]: 94.67% | Split Luciferase Assay %Lum Avg [3, 16]: 96.42%

Oc1ncc(N(CCCl)CCCl)c(O)n1 [Uracil mustard]
Luciferase Assay % Lum [2]: 97.98% | Luciferase Assay Z-score [2]: -0.26 | Split Luciferase Assay % Lum Set 1 [3]: 76.42% | Split Luciferase Assay %Lum Avg [3]: 74.62% | Split Luciferase Assay %Lum Set 2 [3]: 72.82% | Split Luciferase Assay Z-score Set 1 [3]: -1.91 | Split Luciferase Assay Z-score Set 2 [3]: -2.21

COc1cc2c(N3CCN(C(=O)Nc4ccc(OC(C)C)cc4)CC3)ncnc2cc1OCCCN1CCCCC1 [TANDUTINIB]
Luciferase Assay % Lum [2, 4]: 88.98% | Luciferase Assay Z-score [2, 5]: -1.41 | Split Luciferase Assay % Lum Set 1 [3, 6]: 92.73% | Split Luciferase Assay %Lum Set 2 [3, 7]: 92.59% | Split Luciferase Assay Z-score Set 1 [3, 8]: -0.59 | Split Luciferase Assay Z-score Set 2 [3, 9]: -0.60 | Split Luciferase Assay %Lum Avg [3, 10]: 92.66%

NC(=O)c1ccc2nc(-c3ccc(Oc4ccc(Cl)cc4)cc3)[nH]c2c1 [CHK2 INHIBITOR II]
Toxicity Assay % Fluor (CTB cell viability fluorescence) [1]: 112.91% | Toxicity Assay Z-score (CTB cell viability) [1]: 1.80
